Reference: US12479877B2, “Methods for purifying steviol glycosides and uses of the same” (PureCircle Sdn. Bhd., priority 2010, dated 2025)
“And” between values parts separate entries of the source, which are not always exact repeats. Identical values can stand only once.

Columns and labels:
panelists = assay: Sensory properties in acidified water (pH 3.0) at 500 mg/L, 20 panelists; assay type: in vivo, human; details: 500 ppm, acidified water pH 3.0, 20 panelists
Experimental: The sensory properties of Reb X were evaluated in acidified water (pH 3.0 by phosphoric acid) at 500 mg/L concentration by 20 panelists.

[1] = Solubility studies in carbon-treated water and citrate buffer; assay type: physicochemical
Experimental: Citric buffer was prepared by mixing 1.171 g/L citric acid, 0.275 g/L sodium citrate and 0.185 g/L sodium benzoate with carbon-treated water, with a final pH of 3.22. The mixtures were moderately stirred at room temperature. The Reb X sample was then evaluated against the two control Reb A and Reb D samples in water and citric buffer at room temperature (RT) and at 4° C. in an ice bath by one experienced panelist for any tasting quality determinations using the controlled, multi-sip and swallow taste method shown below:
The samples used to evaluate the taste properties in Example 2 were also used for solubility studies.

[2] = Beverage formulations: taste properties compared with Reb A; assay type: in vivo, human
panel of trained tasters = assay: Reb X sweetness vs. concentration, matched to sucrose references; assay type: in vivo, human; details: for Reb X Concentration (ppm) matching sucrose reference: Reb X 98% purity, water at room temperature
Experimental: 2.5%, 5.0%, 7.5%, and 10.0% sucrose solutions were prepared in neutral (7.0 pH) and acidified water (3.2 pH) as reference samples. Solutions containing Reb X (98% purity) were prepared to match the sweetness of each sucrose reference in neutral and acidified water. Samples were tasted and verified by a panel of trained tasters in water at room temperature.

[3] = Sweetness Equivalent (SE) 10.0%

C=C1C[C@@]23CCC4[C@](C)(C(=O)OC5OC(CO)C(O)C(OC6OC(CO)C(O)C(O)C6O)C5OC5OC(CO)C(O)C(O)C5O)CCC[C@@]4(C)[C@@H]2CCC1(OC1OC(CO)C(O)C(OC2OC(CO)C(O)C(O)C2O)C1OC1OC(CO)C(O)C(O)C1O)C3 (stereo partly drawn) [Reb X, (13-[2-O-β-D-glucopyranosyl-3-O-β-D-glucopyranosyl-β-D-glucopyranosyl)oxy] ent kaur-16-en-19-oic acid-[2-O-β-D-glucopyranosyl-3-O-β-D-glycopyranosyl) ester]
Astringent taste: Number of panelists detected the attribute (panelists): 0 | Bitter taste: Number of panelists detected the attribute (panelists): 0 | Licorice taste: Number of panelists detected the attribute (panelists): 0 | Overall evaluation: Satisfactory (number of panelists of 20) (panelists): (20 of 20) | Quality of sweet taste: Clean (number of panelists of 20) (panelists): Clean (20 | Sweet Aftertaste: Number of panelists detected the attribute (panelists): 0 | Taste profile compared to already known steviol glycosides (panelists): superior taste profile | Estimated time to solubilize ([1]; 0.01% in carbon-treated water): 15 min | Estimated time to solubilize ([1]; 0.01% in citrate buffer): 25 min | Estimated time to solubilize ([1]; 0.02% in carbon-treated water): 25 min | Estimated time to solubilize ([1]; 0.02% in citrate buffer): 25 min | Estimated time to solubilize ([1]; 0.04% in carbon-treated water): 33 min | Estimated time to solubilize ([1]; 0.04% in citrate buffer): 35 min | Estimated time to solubilize ([1]; 0.05% in carbon-treated water): 39 min | Estimated time to solubilize ([1]; 0.05% in citrate buffer): 42 min | Estimated time to solubilize ([1]; 0.075% in carbon-treated water): 55 min | Estimated time to solubilize ([1]; 0.075% in citrate buffer): 55 min | Estimated time to solubilize ([1]; 0.10% in carbon-treated water): 106 min | Estimated time to solubilize ([1]; 0.10% in citrate buffer): 106 min | Estimated time to solubilize ([1]; 0.15% in carbon-treated water): Insoluble after 20 hours | Estimated time to solubilize ([1]; 0.15% in citrate buffer): Insoluble after 20 hours | Initial solubility test (comparative) ([1]; 500 ppm concentrations in citrate buffer): significantly greater solubility than that of Reb D and significantly less solubility than Reb A | Taste properties compared to Reb A drink ([2]; flavored zero caloric black tea drink, 250 ppm Reb X vs 250 ppm Reb A): much cleaner in finish with less sweetness linger and a more rounded overall sweetness profile | Reb X level closest in sweetness level to a 11.5 Brix high fructose corn syrup sweetened orange flavored sparkling beverage ([2]; zero caloric orange-flavored sparkling beverage base): 500 ppm and 550 ppm | Taste compared to Reb A-containing formulations ([2]; zero caloric orange-flavored sparkling beverage, Reb X 400 to 750 ppm in 50 ppm increments): significantly better than comparable Reb A-containing formulations | Taste properties compared to Reb A drink ([2]; zero calorie enhanced water drink, 200 ppm Reb X vs 200 ppm Reb A): cleaner in finish and had reduced sweetness linger and a more rounded overall sweetness taste quality | Sweetness Factor (SF) (panel of trained tasters; Sweetness Equivalent (SE) 2.5%): 521 | Reb X Concentration (ppm) matching sucrose reference (panel of trained tasters; Sweetness Equivalent (SE) 2.5%): 48 ppm | Sweetness Factor (SF) (panel of trained tasters; Sweetness Equivalent (SE) 5.0%): 380 | Reb X Concentration (ppm) matching sucrose reference (panel of trained tasters; Sweetness Equivalent (SE) 5.0%): 132 ppm | Sweetness Factor (SF) (panel of trained tasters; Sweetness Equivalent (SE) 7.5%): 295 | Reb X Concentration (ppm) matching sucrose reference (panel of trained tasters; Sweetness Equivalent (SE) 7.5%): 254 ppm | Sweetness Factor (SF) (panel of trained tasters; [3]): 237 | Reb X Concentration (ppm) matching sucrose reference (panel of trained tasters; [3]): 422 ppm
